Test results as given in patent publication US20230157952A1, “METHOD FOR IMPROVING THE STABILITY OF A PHARMACEUTICAL COMPOSITION COMPRISING A HIGH PENETRATION DRUG, AND THE PHARMACEUTICAL COMPOSITION OBTAINED THEREFROM” (Techfields Inc., priority 2020, published 2023).

Assay: Effect of temperature (and pH) on the stability of the solution (purity)
Assay type: physicochemical

CCN(CC)CCOC(=O)C(C)c1ccc(-c2ccccc2)c(F)c1.Cl (racemic)
Purity(%) at day 21 (5° C.) (7% solution in water, pH 1.0, day 21, 5° C.): 94.0 ± 0.3% | Purity(%) at day 21 (25° C.) (7% solution in water, pH 1.0, day 21, 25° C.): 72.0 ± 0.3% | Purity(%) at day 21 (40° C.) (7% solution in water, pH 1.0, day 21, 40° C.): 18.5 ± 0.3% | Purity (%) at day 21 (60° C.) (7% solution in water, pH 1.0, day 21, 60° C.): 0% | Purity(%) at day 21 (25° C.) (7% solution in water, pH 2.0, day 21, 25° C.): 86.1 ± 0.3% | Purity(%) at day 21 (40° C.) (7% solution in water, pH 2.0, day 21, 40° C.): 30.1 ± 0.4% | Purity (%) at day 21 (60° C.) (7% solution in water, pH 2.0, day 21, 60° C.): 0% | Purity(%) at day 21 (25° C.) (7% solution in water, pH 3.0, day 21, 25° C.): 96.0 ± 0.2% | Purity(%) at day 21 (40° C.) (7% solution in water, pH 3.0, day 21, 40° C.): 56.5 ± 0.3% | Purity (%) at day 21 (60° C.) (7% solution in water, pH 3.0, day 21, 60° C.): 8.7 ± 0.3% | Purity(%) at day 21 (25° C.) (7% solution in water, pH 3.7, day 21, 25° C.): 97.5 ± 0.1% | Purity(%) at day 21 (40° C.) (7% solution in water, pH 3.7, day 21, 40° C.): 64.5 ± 0.3% | Purity (%) at day 21 (60° C.) (7% solution in water, pH 3.7, day 21, 60° C.): 16.2 ± 0.3% | Purity(%) at day 21 (40° C.) (7% solution in water, pH 4.0, day 21, 40° C.): 72.3 ± 0.3% | Purity (%) at day 21 (60° C.) (7% solution in water, pH 4.0, day 21, 60° C.): 22.4 ± 0.3% | Purity(%) at day 21 (40° C.) (7% solution in water, pH 4.3, day 21, 40° C.): 72.2 ± 0.3% | Purity (%) at day 21 (60° C.) (7% solution in water, pH 4.3, day 21, 60° C.): 18.3 ± 0.2% | Purity(%) at day 21 (40° C.) (7% solution in water, pH 4.6, day 21, 40° C.): 58.1 ± 0.4% | Purity (%) at day 21 (60° C.) (7% solution in water, pH 4.6, day 21, 60° C.): 10.4 ± 0.3% | Purity(%) at day 21 (5° C.) (7% solution in water, pH 5.0, day 21, 5° C.): 97.6 ± 0.2% | Purity(%) at day 21 (25° C.) (7% solution in water, pH 5.0, day 21, 25° C.): 96.7 ± 0.2% | Purity(%) at day 21 (40° C.) (7% solution in water, pH 5.0, day 21, 40° C.): 50.1 ± 0.3% | Purity (%) at day 21 (60° C.) (7% solution in water, pH 5.0, day 21, 60° C.): 3.0 ± 0.3% | Purity(%) at day 21 (5° C.) (7% solution in water, pH 6.0, day 21, 5° C.): 95.4 ± 0.2% | Purity(%) at day 21 (25° C.) (7% solution in water, pH 6.0, day 21, 25° C.): 90.5 ± 0.3% | Purity(%) at day 21 (40° C.) (7% solution in water, pH 6.0, day 21, 40° C.): 29.7 ± 0.4% | Purity (%) at day 21 (60° C.) (7% solution in water, pH 6.0, day 21, 60° C.): 0% | Purity(%) at day 21 (5° C.) (7% solution in water, pH 7.0, day 21, 5° C.): 89.7 ± 0.3% | Purity(%) at day 21 (25° C.) (7% solution in water, pH 7.0, day 21, 25° C.): 75.1 ± 0.3% | Purity(%) at day 21 (40° C.) (7% solution in water, pH 7.0, day 21, 40° C.): 19.8 ± 0.3% | Purity (%) at day 21 (60° C.) (7% solution in water, pH 7.0, day 21, 60° C.): 0% | Purity(%) at day 21 (5° C.) (7% solution in water, pH 8.0, day 21, 5° C.): 81.9 ± 0.3% | Purity(%) at day 21 (25° C.) (7% solution in water, pH 8.0, day 21, 25° C.): 52.8 ± 0.3% | Purity(%) at day 21 (40° C.) (7% solution in water, pH 8.0, day 21, 40° C.): 0% | Purity (%) at day 21 (60° C.) (7% solution in water, pH 8.0, day 21, 60° C.): 0%

CCN(CC)CCOC(=O)C(C)c1ccc(CC(C)C)cc1.Cl (racemic)
Purity (%) at day 21 (60° C.) (pH 1.02, 7% solution in water): 0% | Purity(%) at day 21 (5° C.) (pH 1.02, 7% solution in water): 93.7 ± 0.3% | Purity(%) at day 21 (25° C.) (pH 1.02, 7% solution in water): 73.0 ± 0.4% | Purity(%) at day 21 (40° C.) (pH 1.02, 7% solution in water): 18.6 ± 0.4% | Purity (%) at day 21 (60° C.) (pH 2.09, 7% solution in water): 0% | Purity(%) at day 21 (5° C.) (pH 2.09, 7% solution in water): 97.6 ± 0.4% | Purity(%) at day 21 (25° C.) (pH 2.09, 7% solution in water): 86.1 ± 0.3% | Purity(%) at day 21 (40° C.) (pH 2.09, 7% solution in water): 30.4 ± 0.3% | Purity (%) at day 21 (60° C.) (pH 3.00, 7% solution in water): 8.8 ± 0.3% | Purity(%) at day 21 (25° C.) (pH 3.00, 7% solution in water): 96.5 ± 0.4% | Purity(%) at day 21 (40° C.) (pH 3.00, 7% solution in water): 56.3 ± 0.4% | Purity (%) at day 21 (60° C.) (pH 3.68, 7% solution in water): 16.4 ± 0.4% | Purity(%) at day 21 (40° C.) (pH 3.68, 7% solution in water): 64.3 ± 0.4% | Purity (%) at day 21 (60° C.) (pH 4.07, 7% solution in water): 22.6 ± 0.4% | Purity(%) at day 21 (40° C.) (pH 4.07, 7% solution in water): 72.7 ± 0.3% | Purity (%) at day 21 (60° C.) (pH 4.35, 7% solution in water): 18.8 ± 0.2% | Purity(%) at day 21 (40° C.) (pH 4.35, 7% solution in water): 72.6 ± 0.3% | Purity (%) at day 21 (60° C.) (pH 4.67, 7% solution in water): 10.3 ± 0.3% | Purity(%) at day 21 (40° C.) (pH 4.67, 7% solution in water): 58.2 ± 0.4% | Purity (%) at day 21 (60° C.) (pH 4.95, 7% solution in water): 3.9 ± 0.3% | Purity(%) at day 21 (5° C.) (pH 4.95, 7% solution in water): 97.5 ± 0.4% | Purity(%) at day 21 (25° C.) (pH 4.95, 7% solution in water): 95.4 ± 0.4% | Purity(%) at day 21 (40° C.) (pH 4.95, 7% solution in water): 50.2 ± 0.4% | Purity (%) at day 21 (60° C.) (pH 5.98, 7% solution in water): 0% | Purity(%) at day 21 (5° C.) (pH 5.98, 7% solution in water): 96.1 ± 0.3% | Purity(%) at day 21 (25° C.) (pH 5.98, 7% solution in water): 90.7 ± 0.3% | Purity(%) at day 21 (40° C.) (pH 5.98, 7% solution in water): 29.9 ± 0.2% | Purity (%) at day 21 (60° C.) (pH 6.98, 7% solution in water): 0% | Purity(%) at day 21 (5° C.) (pH 6.98, 7% solution in water): 90.7 ± 0.4% | Purity(%) at day 21 (25° C.) (pH 6.98, 7% solution in water): 78.6 ± 0.4% | Purity(%) at day 21 (40° C.) (pH 6.98, 7% solution in water): 19.7 ± 0.4% | Purity (%) at day 21 (60° C.) (pH 8.01, 7% solution in water): 0% | Purity(%) at day 21 (5° C.) (pH 8.01, 7% solution in water): 81.6 ± 0.5% | Purity(%) at day 21 (25° C.) (pH 8.01, 7% solution in water): 52.5 ± 0.5% | Purity(%) at day 21 (40° C.) (pH 8.01, 7% solution in water): 0%

CCN(CC)CCOC(=O)[C@H](C)c1ccc2cc(OC)ccc2c1.Cl (racemic)
Purity (%) at day 21 (60° C.) (pH 1.02, 7% solution in water): 0% | Purity(%) at day 21 (5° C.) (pH 1.02, 7% solution in water): 93.8 ± 0.2% | Purity(%) at day 21 (25° C.) (pH 1.02, 7% solution in water): 72.2 ± 0.2% | Purity(%) at day 21 (40° C.) (pH 1.02, 7% solution in water): 18.1 ± 0.3% | Purity (%) at day 21 (60° C.) (pH 2.09, 7% solution in water): 0% | Purity(%) at day 21 (25° C.) (pH 2.09, 7% solution in water): 86.3 ± 0.2% | Purity(%) at day 21 (40° C.) (pH 2.09, 7% solution in water): 30.2 ± 0.4% | Purity (%) at day 21 (60° C.) (pH 3.00, 7% solution in water): 7.9 ± 0.2% | Purity(%) at day 21 (25° C.) (pH 3.00, 7% solution in water): 96.3 ± 0.2% | Purity(%) at day 21 (40° C.) (pH 3.00, 7% solution in water): 56.7 ± 0.2% | Purity (%) at day 21 (60° C.) (pH 3.68, 7% solution in water): 15.3 ± 0.4% | Purity(%) at day 21 (40° C.) (pH 3.68, 7% solution in water): 63.7 ± 0.2% | Purity (%) at day 21 (60° C.) (pH 4.07, 7% solution in water): 21.5 ± 0.3% | Purity(%) at day 21 (40° C.) (pH 4.07, 7% solution in water): 72.5 ± 0.3% | Purity (%) at day 21 (60° C.) (pH 4.35, 7% solution in water): 18.7 ± 0.2% | Purity(%) at day 21 (40° C.) (pH 4.35, 7% solution in water): 72.3 ± 0.2% | Purity (%) at day 21 (60° C.) (pH 4.67, 7% solution in water): 10.6 ± 0.2% | Purity(%) at day 21 (40° C.) (pH 4.67, 7% solution in water): 58.5 ± 0.2% | Purity (%) at day 21 (60° C.) (pH 4.95, 7% solution in water): 3.1 ± 0.3% | Purity(%) at day 21 (25° C.) (pH 4.95, 7% solution in water): 95.5 ± 0.3% | Purity(%) at day 21 (40° C.) (pH 4.95, 7% solution in water): 50.6 ± 0.2% | Purity (%) at day 21 (60° C.) (pH 5.98, 7% solution in water): 0% | Purity(%) at day 21 (5° C.) (pH 5.98, 7% solution in water): 96.1 ± 0.2% | Purity(%) at day 21 (25° C.) (pH 5.98, 7% solution in water): 90.7 ± 0.3% | Purity(%) at day 21 (40° C.) (pH 5.98, 7% solution in water): 30.3 ± 0.3% | Purity (%) at day 21 (60° C.) (pH 6.98, 7% solution in water): 0% | Purity(%) at day 21 (5° C.) (pH 6.98, 7% solution in water): 90.9 ± 0.2% | Purity(%) at day 21 (25° C.) (pH 6.98, 7% solution in water): 70.8 ± 0.2% | Purity(%) at day 21 (40° C.) (pH 6.98, 7% solution in water): 19.9 ± 0.3% | Purity (%) at day 21 (60° C.) (pH 8.01, 7% solution in water): 0% | Purity(%) at day 21 (5° C.) (pH 8.01, 7% solution in water): 81.9 ± 0.2% | Purity(%) at day 21 (25° C.) (pH 8.01, 7% solution in water): 58.8 ± 0.2% | Purity(%) at day 21 (40° C.) (pH 8.01, 7% solution in water): 0%

CCN(CC)CCOC(=O)COC(=O)Cc1c(C)n(C(=O)c2ccc(Cl)cc2)c2ccc(OC)cc12.Cl [2-(diethylamino)ethyl 1-(4-chlorobenzoyl-5-methoxy-2-methyl-1H-indole-3-acetoxyacetate.HCl]
Stability of the solution at a temperature higher than 40° C. and a pH lower than 3 or greater than 6 (7% solution in water): not stable

CCN(CC)CCOC(=O)Cc1ccccc1Oc1ccc(Cl)cc1Cl.Cl [2-(diethylamino)ethyl 2-(2,4-dichlorophenoxy)benzeneacetate.HCl]
Stability of the solution at a temperature higher than 40° C. and a pH lower than 3 or greater than 6 (7% solution in water): not stable

CCN(CC)CCOC(=O)COc1nn(Cc2ccccc2)c2ccccc12.Cl [2-(diethylamino)ethyl [(1-benzyl-1H-indazol-3-yl)oxy]acetate•HCl]
Stability of the solution at a temperature higher than 40° C. and a pH lower than 3 or greater than 6 (7% solution in water): not stable
